No end group written: not given here.
Columns and labels:
Assay in all cases: biochemical
Type in all cases: binding
HLA-A11 (A*1101) = HLA-A11 (A*1101) (Homo sapiens, UniProt P04439, A114D/D185E/E176A/F33Y/L180Q/S129P/T187R)
A*6801 = A*6801 (Homo sapiens, UniProt P04439, A269V/D185E/E176V/E277Q/E87N/F33Y/G231S/I121M/I166T/I218V/L180W/L300P/L318F/N151K/P208A/P217A/Q86R/R169H/T345S)
A31 (A*3101) = A31 (A*3101) (Homo sapiens, UniProt P04439, A270S/D185E/E176V/E277Q/F33T/G231S/G80R/H175R/I121M/I218V/I322F/K168Q/L300P/L318F/M331R/P217A/Q94H/R138Q/T323A/T345S/T97I/V358M)
HLA-A3.2 (A*0301) = HLA-A3.2 (A*0301) (Homo sapiens, UniProt P04439)
A*3301 = A*3301 (Homo sapiens, UniProt P04439, A270S/D185E/E176V/E277Q/E87N/F33T/G231S/H175R/I121M/I218V/I322F/K168Q/K210R/L300P/L318F/M331R/P217A/Q86R/Q94H/R138Q/T323A/T345S/T97I/V358M/Y195H)

Sequence | IC50 (HLA-A11 (A*1101)) | IC50 (A*6801) | IC50 (A31 (A*3101)) | IC50 (HLA-A3.2 (A*0301)) | IC50 (A*3301)
ITYSDETQR [Peptide 88.0429] | 165 nM | 26 nM | 879 nM | 2960 nM | 1350 nM
KFYSKISEYR [Peptide 78.0081] | 18000 nM | 264 nM | 48 nM | 1680 nM | 79 nM
KGLGISYGRKK [Peptide 1577.23] | 6210 nM | > 20000 nM | 49 nM | 23 nM | > 20000 nM
KIDWLIKRIR [Peptide 9017.0248] | 8630 nM | > 20000 nM | 19 nM | 8650 nM | 6690 nM
KIKPPLPSVR [Peptide 9017.0234] | 6950 nM | 14700 nM | 8.1 nM | 1110 nM | 3440 nM
KISEYRHYCY [Peptide 78.0082] | 163 nM | 2000 nM | 4850 nM | 152 nM | 2350 nM
KLCLRFLSK [Peptide 1571.20] | 279 nM | > 20000 nM | 271 nM | 18 nM | > 20000 nM
KLFGYSWYK [Peptide 76.0146] | 7.3 nM | 16 nM | 7.3 nM | 11 nM | 3720 nM
KLFLKGVPK [Peptide 1587.41] | 17 nM | > 20000 nM | 1.5 nM | 16 nM | 9680 nM
KLFLQGTPK [Peptide 88.0381] | 12 nM | 703 nM | 51 nM | 15 nM | > 20000 nM
KLGIVTITY [Peptide 88.0428] | 3430 nM | > 20000 nM | > 20000 nM | 65 nM | > 20000 nM
KLVEDRWNK [Peptide 9017.0107] | 102 nM | 18000 nM | 61 nM | 265 nM | > 20000 nM
KQEAVRHFPR [Peptide 9017.0239] | 394 nM | 6740 nM | 9.9 nM | 9260 nM | 575 nM
KSCFAMSLIK [Peptide 88.0190] | 17 nM | 12200 nM | 311 nM | 57 nM | > 20000 nM
KSFFSRTWCK [Peptide 88.0170] | 12 nM | 219 nM | 5.4 nM | 7.9 nM | 22 nM
KSFLKGTPK [Peptide 88.0344] | 23 nM | 1910 nM | 22 nM | 16 nM | 16100 nM
KSFLKGTPKK [Peptide 88.0149] | 89 nM | > 20000 nM | 572 nM | 48 nM | > 20000 nM
KTASVGTPK [Peptide 1589.27] | 13 nM | 8.5 nM | 44 nM | 11 nM | > 20000 nM
KTDEGGDWK [Peptide 88.0380] | 407 nM | 9890 nM | > 20000 nM | 3630 nM | 13100 nM
KTLLQPYCLY [Peptide 88.0153] | 405 nM | > 20000 nM | 4280 nM | 180 nM | 19600 nM
KTTPVVHLK [Peptide 1589.37] | 22 nM | 33 nM | 28 nM | 28 nM | > 20000 nM
KTTVLFKFK [Peptide 88.0369] | 20 nM | 874 nM | 36 nM | 31 nM | 1400 nM
KVSEFRWYR [Peptide 78.0281] | 15 nM | 23 nM | 10 nM | 43 nM | 32 nM
KVSPIVHLK [Peptide 1589.42] | 30 nM | 25 nM | 6 nM | 21 nM | > 20000 nM
LFYSKVRKYK [Peptide 88.0098] | 2580 nM | 1980 nM | 18 nM | 680 nM | 30 nM
LLFYSKVRK [Peptide 78.0298] | 13 nM | 23 nM | 395 nM | 3.9 nM | 799 nM
LLLIRFKCSK [Peptide 88.0191] | 3520 nM | 879 nM | 749 nM | 284 nM | 17400 nM
LLQAVRIIK [Peptide 9017.0068] | 326 nM | 15900 nM | 328 nM | 107 nM | 3020 nM

Sequence | IC50 (HLA-A11 (A*1101)) | IC50 (A*6801) | IC50 (A31 (A*3101)) | IC50 (HLA-A3.2 (A*0301)) | IC50 (A*3301)
LLRAVRIIK [Peptide 9017.0069] | 2030 nM | > 20000 nM | 2640 nM | 69 nM | > 20000 nM
LLYGAANTGK [Peptide 1587.12] | 16 nM | 76 nM | 6720 nM | 3.3 nM | > 20000 nM
LLYGPANTGK [Peptide 1587.56] | 8.8 nM | 44 nM | 6300 nM | 14 nM | 14500 nM
LQGKLYYKFK [Peptide 88.0184] | 130 nM | > 20000 nM | 3710 nM | 724 nM | 16200 nM
LQLALEALNK [Peptide 88.0227] | 21 nM | > 20000 nM | 3630 nM | 1100 nM | > 20000 nM
LSALKLFLK [Peptide 1587.39] | 31 nM | 2210 nM | 96 nM | 957 nM | 1820 nM
LTNILNVLK [Peptide 1587.02] | 4.6 nM | 12 nM | 210 nM | 221 nM | 2030 nM
LTSQIEHWK [Peptide 88.0439] | 14 nM | 24 nM | 8880 nM | 4940 nM | > 20000 nM
LTTNIHPAK [Peptide 88.0347] | 18 nM | 16 nM | 231 nM | 44 nM | 575 nM
LVYQDTILWK [Peptide 9012.0221] | 32 nM | 155 nM | > 20000 nM | 199 nM | > 20000 nM
LVYRDDFPY [Peptide 1581.04] | 58 nM | 11300 nM | > 20000 nM | 7380 nM | > 20000 nM
MALESILRK [Peptide 9012.0214] | 13 nM | 433 nM | > 20000 nM | 216 nM | 5480 nM
MLVRFKCAK [Peptide 1587.30] | 187 nM | 864 nM | 85 nM | 151 nM | 983 nM
MQYVAWKYIY [Peptide 88.0233] | 52 nM | 12100 nM | > 20000 nM | 1890 nM | > 20000 nM
MTDAGTWDK [Peptide 88.0400] | 12 nM | 28 nM | > 20000 nM | 1580 nM | > 20000 nM
MTYVAWDSVY [Peptide 1589.07] | 892 nM | 73 nM | 19400 nM | 616 nM | > 20000 nM
NLQGKLYYK [Peptide 88.0375] | 55 nM | 98 nM | 363 nM | 277 nM | 9.4 nM
NSNAAAFLK [Peptide 88.0342] | 19 nM | 22 nM | 2640 nM | 955 nM | 665 nM
NSNAAAFLR [Peptide 88.0387] | 213 nM | 20 nM | 158 nM | > 20000 nM | 50 nM
NSNASAFLK [Peptide 1587.07] | 13 nM | 27 nM | 3400 nM | 426 nM | 269 nM
NVAPIVHLK [Peptide 1589.21] | 394 nM | 2.4 nM | > 20000 nM | 6380 nM | > 20000 nM
QQLLFIHFR [Peptide 9017.0111] | 4.8 nM | 17 nM | 2 nM | 1800 nM | 41 nM
QQMFLGTVK [Peptide 88.0415] | 22 nM | 1580 nM | 7170 nM | 2040 nM | > 20000 nM
QSNPYPEPK [Peptide 9017.0070] | 46 nM | 868 nM | 513 nM | 1040 nM | > 20000 nM
QTCALYWFR [Peptide 88.0361] | 64 nM | 18 nM | 51 nM | 1960 nM | 19 nM
QVVPALSVSK [Peptide 1589.13] | 25 nM | 12 nM | 8920 nM | 825 nM | > 20000 nM
QVVPAYNISK [Peptide 1589.06] | 15 nM | 7.6 nM | 6660 nM | 326 nM | > 20000 nM

From patent US9340577B2, “HLA binding motifs and peptides and their uses” (priority 1992, dated 2016)
